Measurements as given in ChEMBL document CHEMBL5465560, “Selectivity Literature for EUbOPEN Chemogenomic Library” (2024).

Assays:
[1] = molecular target: T1, Myosin-IIIb (Homo sapiens) (UniProt Q8WXR4); test: Selectivity interaction (KinomeScan (DiscoverX)) EUB0000595a MYO3B; settings: at 10 µM
T1 sequence (whole entry): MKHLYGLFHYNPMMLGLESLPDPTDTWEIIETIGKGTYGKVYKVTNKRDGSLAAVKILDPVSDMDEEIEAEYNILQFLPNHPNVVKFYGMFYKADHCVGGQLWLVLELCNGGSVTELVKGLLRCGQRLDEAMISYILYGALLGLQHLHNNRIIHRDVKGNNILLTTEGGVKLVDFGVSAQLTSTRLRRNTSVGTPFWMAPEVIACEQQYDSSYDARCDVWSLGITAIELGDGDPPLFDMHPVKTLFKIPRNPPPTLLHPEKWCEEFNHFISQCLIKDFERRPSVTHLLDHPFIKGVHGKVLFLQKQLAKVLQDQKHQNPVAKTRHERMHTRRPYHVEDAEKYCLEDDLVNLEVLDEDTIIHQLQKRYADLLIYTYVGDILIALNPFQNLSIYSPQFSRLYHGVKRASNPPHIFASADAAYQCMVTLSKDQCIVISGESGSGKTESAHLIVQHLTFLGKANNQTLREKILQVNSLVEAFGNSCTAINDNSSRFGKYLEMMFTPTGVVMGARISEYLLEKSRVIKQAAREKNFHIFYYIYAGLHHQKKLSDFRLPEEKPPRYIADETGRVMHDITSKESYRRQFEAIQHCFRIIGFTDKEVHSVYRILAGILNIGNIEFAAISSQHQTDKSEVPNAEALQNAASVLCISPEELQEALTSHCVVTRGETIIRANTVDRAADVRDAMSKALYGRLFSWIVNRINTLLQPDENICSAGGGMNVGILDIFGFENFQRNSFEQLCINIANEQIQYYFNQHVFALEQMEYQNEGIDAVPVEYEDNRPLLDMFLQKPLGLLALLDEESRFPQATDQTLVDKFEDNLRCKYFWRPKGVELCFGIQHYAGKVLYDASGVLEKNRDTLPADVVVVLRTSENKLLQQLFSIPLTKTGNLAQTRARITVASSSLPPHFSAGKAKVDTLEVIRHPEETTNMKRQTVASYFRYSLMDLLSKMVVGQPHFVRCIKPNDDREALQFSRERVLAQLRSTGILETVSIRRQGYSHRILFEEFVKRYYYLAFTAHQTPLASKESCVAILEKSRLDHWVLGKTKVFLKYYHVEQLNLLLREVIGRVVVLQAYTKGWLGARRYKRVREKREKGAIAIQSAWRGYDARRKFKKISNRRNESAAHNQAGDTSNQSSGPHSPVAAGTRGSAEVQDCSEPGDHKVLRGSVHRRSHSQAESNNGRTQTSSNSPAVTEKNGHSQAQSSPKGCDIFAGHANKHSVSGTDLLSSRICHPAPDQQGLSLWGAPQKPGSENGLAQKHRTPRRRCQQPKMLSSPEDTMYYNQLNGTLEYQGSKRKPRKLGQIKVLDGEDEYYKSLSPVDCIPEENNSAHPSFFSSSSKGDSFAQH

[2] = molecular target: Mitogen-activated protein kinase 8 (Homo sapiens, UniProt P45983); test: Selectivity interaction (KinomeScan (DiscoverX)) EUB0000045b MAPK8
Mitogen-activated protein kinase 8, sequence (P45983 whole entry): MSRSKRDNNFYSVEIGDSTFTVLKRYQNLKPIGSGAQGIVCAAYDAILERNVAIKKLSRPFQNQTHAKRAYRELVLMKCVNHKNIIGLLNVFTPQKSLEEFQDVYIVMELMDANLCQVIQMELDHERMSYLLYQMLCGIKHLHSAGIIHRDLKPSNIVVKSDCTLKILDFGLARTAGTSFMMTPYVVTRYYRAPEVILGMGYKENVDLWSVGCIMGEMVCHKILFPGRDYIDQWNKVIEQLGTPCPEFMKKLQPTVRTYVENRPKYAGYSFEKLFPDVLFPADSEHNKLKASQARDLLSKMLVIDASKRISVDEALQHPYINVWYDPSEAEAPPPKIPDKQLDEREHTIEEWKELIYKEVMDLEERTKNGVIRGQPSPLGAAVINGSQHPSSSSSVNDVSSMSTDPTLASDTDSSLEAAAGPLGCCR

[3] = molecular target: cAMP-dependent protein kinase catalytic subunit alpha (Homo sapiens, UniProt P17612); test: Selectivity interaction (Millipore kinase profiler) EUB0000124b PRKACA; settings: at 10 µM
[4] = molecular target: T2, G protein-coupled receptor kinase 3 (Homo sapiens) (UniProt P35626); test: Selectivity interaction (ProQinase) EUB0000171b ADRBK2
T2 sequence (whole entry): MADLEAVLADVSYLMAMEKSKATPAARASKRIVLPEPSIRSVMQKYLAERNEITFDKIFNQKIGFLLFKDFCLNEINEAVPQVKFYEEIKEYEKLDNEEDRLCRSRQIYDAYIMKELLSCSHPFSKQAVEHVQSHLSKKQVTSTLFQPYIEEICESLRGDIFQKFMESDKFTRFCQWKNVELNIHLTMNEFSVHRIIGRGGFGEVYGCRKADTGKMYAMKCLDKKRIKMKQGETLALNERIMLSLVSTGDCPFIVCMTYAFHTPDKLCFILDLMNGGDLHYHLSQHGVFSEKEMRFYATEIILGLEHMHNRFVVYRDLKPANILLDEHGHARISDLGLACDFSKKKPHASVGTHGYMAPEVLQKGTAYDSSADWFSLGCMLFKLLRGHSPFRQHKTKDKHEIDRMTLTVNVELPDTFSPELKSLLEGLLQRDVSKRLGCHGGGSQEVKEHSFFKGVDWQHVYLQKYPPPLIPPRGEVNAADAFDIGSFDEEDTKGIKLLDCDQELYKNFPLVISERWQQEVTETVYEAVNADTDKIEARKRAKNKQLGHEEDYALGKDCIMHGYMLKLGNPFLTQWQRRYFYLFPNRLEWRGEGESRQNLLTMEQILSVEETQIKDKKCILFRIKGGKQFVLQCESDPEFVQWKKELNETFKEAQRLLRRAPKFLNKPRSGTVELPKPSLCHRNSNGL

[5] = molecular target: T3, Tyrosine-protein kinase ZAP-70 (Homo sapiens) (UniProt P43403); test: Selectivity interaction (ProQinase) EUB0000171b ZAP70
T3 sequence (whole entry): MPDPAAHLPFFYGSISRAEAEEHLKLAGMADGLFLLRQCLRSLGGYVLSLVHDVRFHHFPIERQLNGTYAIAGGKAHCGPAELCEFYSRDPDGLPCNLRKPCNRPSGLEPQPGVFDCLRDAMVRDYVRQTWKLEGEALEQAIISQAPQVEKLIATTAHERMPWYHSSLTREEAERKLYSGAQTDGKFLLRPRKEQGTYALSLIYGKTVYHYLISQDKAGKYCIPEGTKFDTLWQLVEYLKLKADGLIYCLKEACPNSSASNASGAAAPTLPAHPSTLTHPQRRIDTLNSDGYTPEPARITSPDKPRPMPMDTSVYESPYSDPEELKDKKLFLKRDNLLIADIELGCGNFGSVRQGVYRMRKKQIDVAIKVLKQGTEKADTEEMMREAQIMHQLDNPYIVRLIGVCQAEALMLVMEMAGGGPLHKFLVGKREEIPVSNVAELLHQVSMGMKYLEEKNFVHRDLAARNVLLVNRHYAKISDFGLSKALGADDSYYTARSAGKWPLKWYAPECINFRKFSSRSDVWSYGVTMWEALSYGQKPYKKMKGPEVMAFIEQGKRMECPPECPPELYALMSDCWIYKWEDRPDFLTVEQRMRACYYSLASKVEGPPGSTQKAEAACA

[6] = molecular target: High affinity nerve growth factor receptor (Homo sapiens, UniProt P04629); test: Selectivity interaction (KinomeScan (DiscoverX)) EUB0000092b NTRK1; settings: at 10 µM
High affinity nerve growth factor receptor, sequence (P04629 33-796 limits assumed): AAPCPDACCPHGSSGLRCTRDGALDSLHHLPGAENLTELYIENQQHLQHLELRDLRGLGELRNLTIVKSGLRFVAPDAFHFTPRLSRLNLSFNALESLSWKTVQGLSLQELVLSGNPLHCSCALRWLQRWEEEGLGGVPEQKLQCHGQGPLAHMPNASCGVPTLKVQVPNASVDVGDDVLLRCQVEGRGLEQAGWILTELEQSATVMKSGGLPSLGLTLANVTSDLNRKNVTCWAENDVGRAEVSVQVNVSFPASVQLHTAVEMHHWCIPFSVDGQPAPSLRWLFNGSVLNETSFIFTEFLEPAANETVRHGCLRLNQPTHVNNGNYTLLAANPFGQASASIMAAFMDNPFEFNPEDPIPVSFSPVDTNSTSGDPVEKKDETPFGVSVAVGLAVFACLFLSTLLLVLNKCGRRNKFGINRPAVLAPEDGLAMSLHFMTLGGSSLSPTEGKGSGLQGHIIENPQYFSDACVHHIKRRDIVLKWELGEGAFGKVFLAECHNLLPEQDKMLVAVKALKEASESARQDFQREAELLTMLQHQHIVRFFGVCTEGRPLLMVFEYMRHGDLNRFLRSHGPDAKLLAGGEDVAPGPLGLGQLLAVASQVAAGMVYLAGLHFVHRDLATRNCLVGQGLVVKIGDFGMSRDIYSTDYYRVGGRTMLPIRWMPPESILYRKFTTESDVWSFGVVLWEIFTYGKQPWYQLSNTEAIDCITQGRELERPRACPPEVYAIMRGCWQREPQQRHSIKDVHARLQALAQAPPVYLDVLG

[7] = molecular target: Dual specificity protein kinase CLK4 (Homo sapiens, UniProt Q9HAZ1); test: Selectivity interaction (KinomeScan (DiscoverX)) EUB0000092b CLK4; settings: at 10 µM
Dual specificity protein kinase CLK4, sequence (Q9HAZ1 whole entry, looked up): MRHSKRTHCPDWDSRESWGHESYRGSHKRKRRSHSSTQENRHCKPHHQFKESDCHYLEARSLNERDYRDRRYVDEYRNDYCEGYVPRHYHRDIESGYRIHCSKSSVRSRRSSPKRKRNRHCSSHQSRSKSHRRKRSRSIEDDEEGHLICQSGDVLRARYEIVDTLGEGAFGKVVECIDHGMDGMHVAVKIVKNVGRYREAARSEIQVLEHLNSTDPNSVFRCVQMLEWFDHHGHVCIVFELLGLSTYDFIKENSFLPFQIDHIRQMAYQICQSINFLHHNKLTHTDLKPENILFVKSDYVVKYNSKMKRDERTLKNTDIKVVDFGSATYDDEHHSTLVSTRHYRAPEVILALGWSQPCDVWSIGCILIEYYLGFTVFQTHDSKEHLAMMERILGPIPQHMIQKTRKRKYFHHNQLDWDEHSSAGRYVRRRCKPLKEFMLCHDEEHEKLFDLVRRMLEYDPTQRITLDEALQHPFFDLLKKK

## COCC(=O)NC/C=C/c1ccc2ncnc(Nc3ccc(Oc4ccc(C)nc4)c(C)c3)c2c1 [CP-724714]
[1]
  % of control: 100%

## C=CC(=O)Nc1cc(-n2c(=O)ccc3cnc4ccc(-c5ccc(NS(C)(=O)=O)cc5)cc4c32)ccc1C
[2]; at 1 µM
  % of control: 93%
[2]; at 10 µM
  % of control: 14%

## CC(=O)Nc1cccc(-n2c(=O)n(C3CC3)c(=O)c3c(Nc4ccc(I)cc4F)n(C)c(=O)c(C)c32)c1
[3]
  % of control: 98%

## C=CC(=O)Nc1cccc(C(=O)Nc2ccc(Nc3cc(-c4[nH]c(SC)nc4C)ccn3)cc2)c1
[4]; at 1 µM
  % of control: 94%
[4]; at 5 µM
  % of control: 95%
[5]; at 1 µM
  % of control: 88%
[5]; at 5 µM
  % of control: 93%

## CCC(=O)N1CCN(c2ccc(-n3c(=O)ccc4cnc5ccc(-c6cnc7ccccc7c6)cc5c43)cc2C(F)(F)F)CC1
[6]
  % of control: 64%
[7]
  % of control: 49%
